Experimental data from publication PMC6792352, “Limited Chemical Structural Diversity Found to Modulate Thyroid Hormone Receptor in the Tox21 Chemical Library” (Environmental Health Perspectives, 2019).
Counter-ions that a name gives are not always drawn.

Test: in vitro
Conditions: rat, gh3-tre-luc cells

| Compound | CC50 at 24 h (AC50 (uM) modified / 1000) | further results |
| --- | --- | --- |
| CN(C)CCCNCCC#N [3-{[3-(Dimethylamino)propyl]amino}propanenitrile] | > 90 µM | – |
| C1=CCC2CC=CC2C1 (centres unmarked) [3a,4,7,7a-Tetrahydroindene] | > 90 µM | – |
| CCN(CC)CCO[C@H]1CC[C@@]2(C)C(=CC[C@@H]3[C@@H]2CC[C@]2(C)C(=O)CC[C@@H]32)C1 [3beta-(2-Diethylaminoethoxy)androst-5-en-17-one hydrochloride] | > 50 µM | – |
| CC(=O)O[C@H]1CC[C@@]2(C)C(=CC[C@H]3[C@@H]4CC[C@H](C(C)=O)[C@@]4(C)CC[C@@H]32)C1 [3beta-Acetoxy-5-pregnene-20-one] | > 50 µM | – |
| COc1cc(NC(=O)CC(C)=O)c(OC)cc1Cl [4'-Chloro-2',5'-dimethoxyacetoacetanilide] | > 90 µM | – |
| Nc1ccc(-c2ccc(F)cc2)cc1 [4'-Fluoro-4-aminodiphenyl] | > 90 µM | – |
| COc1ccc(C(C)=O)cc1 [4'-Methoxyacetophenone] | > 90 µM | – |
| CC(=O)c1ccc(OCC(=O)N2CCCCC2)cc1 [4'-Piperidinylcarbonylmethoxyacetophenone] | > 50 µM | – |
| CC(=O)Nc1ccc(S(N)(=O)=O)cc1 [4'-Sulfamylacetanilide] | > 90 µM | – |
| CC(=O)c1c(C)cc(C(C)(C)C)cc1C [4'-tert-Butyl-2',6'-dimethylacetophenone] | > 90 µM | – |
| CC(c1ccc(O)cc1)(c1ccc(O)cc1)c1ccc(O)cc1 [4,4',4"-Ethane-1,1,1-triyltriphenol] | 55.5 µM | – |
| Oc1ccc(C2(c3ccc(O)cc3)c3ccccc3-c3ccccc32)cc1 [4,4'-(9H-Fluorene-9,9-diyl)diphenol] | 28.7 µM | – |
| C1CN(CCOCCN2CCOCC2)CCO1 [4,4'-(Oxydiethylene)bis(morpholine)] | > 90 µM | – |
| Oc1ccc(-c2ccc(O)cc2)cc1 [4,4'-Biphenyldiol] | > 90 µM | – |
| c1cc(-c2ccncc2)ccn1 [4,4'-Bipyridine] | > 90 µM | – |
| CCCC(c1cc(C(C)(C)C)c(O)cc1C)c1cc(C(C)(C)C)c(O)cc1C [4,4'-Butane-1,1-diylbis(2-tert-butyl-5-methylphenol)] | 3.97 µM | – |
| CC(C)(C)c1ccc(-c2ccc(C(C)(C)C)cc2)cc1 [4,4'-Di-tert-butylbiphenyl] | > 90 µM | – |
| Nc1ccc(C=Cc2ccc(N)cc2S(=O)(=O)O)c(S(=O)(=O)O)c1 [4,4'-Diamino-2,2'-stilbenedisulfonic acid] | > 50 µM | – |
| Cc1cc(Cc2ccc(N)c(C)c2)ccc1N [4,4'-Diamino-3,3'-dimethyldiphenylmethane] | > 90 µM | – |
| Nc1ccc(N=Nc2ccc(N)cc2)cc1 [4,4'-Diaminoazobenzene] | 32.1 µM | – |
| Nc1ccc(NC(=O)c2ccc(N)cc2)cc1 [4,4'-Diaminobenzanilide] | > 90 µM | – |
| NC1CCC(CC2CCC(N)CC2)CC1 (centres unmarked) [4,4'-Diaminodicyclohexylmethane] | > 90 µM | – |
| CC(C#N)(CCC(=O)O)N=NC(C)(C#N)CCC(=O)O (centres unmarked) [4,4'-Diazene-1,2-diylbis(4-cyanopentanoic acid)] | > 90 µM | – |
| O=C(C(=O)c1ccc(Br)cc1)c1ccc(Br)cc1 [4,4'-Dibromobenzil] | > 30 µM | – |
| Brc1ccc(Oc2ccc(Br)cc2)cc1 [4,4'-Dibromodiphenyl ether] | > 90 µM | – |
| O=C(c1ccc(Cl)cc1)c1ccc(Cl)cc1 [4,4'-Dichlorobenzophenone] | > 90 µM | – |

| Compound | CC50 at 24 h (AC50 (uM) modified / 1000) | further results |
| --- | --- | --- |
| O=S(=O)(c1ccc(Cl)cc1)c1ccc(Cl)cc1 [4,4'-Dichlorodiphenyl sulfone] | > 90 µM | – |
| O=C(c1ccc(O)cc1)c1ccc(O)cc1 [4,4'-Dihydoxybenzophenone] | > 90 µM | – |
| COc1ccc(Nc2ccc(OC)cc2)cc1 [4,4'-Dimethoxydiphenylamine] | 50.3 µM | – |
| O=C(Nc1ccc([N+](=O)[O-])cc1)Nc1ccc([N+](=O)[O-])cc1 [4,4'-Dinitrodiphenylurea] | > 50 µM | – |
| O=C=Nc1ccc(Cc2ccc(N=C=O)cc2)cc1 [4,4'-Diphenylmethane diisocyanate] | > 90 µM | – |
| CC(C)(C)c1cc(Cc2cc(C(C)(C)C)c(O)c(C(C)(C)C)c2)cc(C(C)(C)C)c1O [4,4'-Methylenebis(2,6-di-t-butylphenol)] | > 90 µM | – |
| CCc1cc(Cc2cc(CC)c(N)c(CC)c2)cc(CC)c1N [4,4'-Methylenebis(2,6-diethylaniline)] | 61.9 µM | – |
| Nc1ccc(Cc2ccc(N)c(Cl)c2)cc1Cl [4,4'-Methylenebis(2-chloroaniline)] | 67.7 µM | – |
| CN(C)c1ccc(Cc2ccc(N(C)C)cc2)cc1 [4,4'-Methylenebis(N,N-dimethylaniline)] | > 90 µM | – |
| Nc1ccc(Cc2ccc(N)cc2)cc1 [4,4'-Methylenedianiline] | – | CC50 at 24 h (AC50 (uM) modified / 1000, Tox21_110001=Tox21_201723, viability, 1 nM T3 present, 24 h): > 90 µM |
| Oc1ccc(C2(c3ccc(O)cc3)CC3CC2C2CCCC32)cc1 (centres unmarked) [4,4'-Octahydro-1H-4,7-methanoindene-5,5-diyldiphenol] | 27.4 µM | – |
| NNS(=O)(=O)c1ccc(Oc2ccc(S(=O)(=O)NN)cc2)cc1 [4,4'-Oxybis(benzenesulfohydrazide)] | > 90 µM | – |
| Nc1ccc(Oc2ccc(N)cc2)cc1 [4,4'-Oxydianiline] | > 90 µM | – |
| c1cc(CCCc2ccncc2)ccn1 [4,4'-Propane-1,3-diyldipyridine] | > 90 µM | – |
| Cc1cc(C(C)(C)c2cc(C)c(O)c(C)c2)cc(C)c1O [4,4'-Propane-2,2-diylbis(2,6-dimethylphenol)] | 16.9 µM | – |
| CC(C)(C1CCC(O)CC1)C1CCC(O)CC1 (centres unmarked) [4,4'-Propane-2,2-diyldicyclohexanol] | > 90 µM | – |
| C=CCc1cc(S(=O)(=O)c2ccc(O)c(CC=C)c2)ccc1O [4,4'-Sulfonylbis[2-(prop-2-en-1-yl)phenol]] | 49.1 µM | – |
| O=S(=O)(c1ccc(O)cc1)c1ccc(O)cc1 [4,4'-Sulfonyldiphenol] | > 90 µM | – |
| Cc1cc(O)c(C(C)(C)C)cc1Sc1cc(C(C)(C)C)c(O)cc1C [4,4'-Thiobis(6-tert-butyl-m-cresol)] | 3.64 µM | – |
| Nc1ccc(Sc2ccc(N)cc2)cc1 [4,4'-Thiodianiline] | > 90 µM | – |
| Oc1ccc(Sc2ccc(O)cc2)cc1 [4,4'-Thiodiphenol] | 47.9 µM | – |
| CC(C)(C)CC(C)(C)c1ccc(Nc2ccc(C(C)(C)CC(C)(C)C)cc2)cc1 [4,4'-bis(1,1,3,3-Tetramethylbutyl)diphenylamine] | > 5 µM | – |
| O=C(CC(=O)C(F)(F)F)c1ccccc1 [4,4,4-Trifluoro-1-phenyl-1,3-butanedione] | > 90 µM | – |
| CCO[Si](CCCSSSSCCC[Si](OCC)(OCC)OCC)(OCC)OCC [4,4,15,15-Tetraethoxy-3,16-dioxa-8,9,10,11-tetrathia-4,15-disilaoctadecane] | 70.3 µM | – |
| CCCCCCCCn1sc(Cl)c(Cl)c1=O [4,5-Dichloro-2-octyl-3(2H)-isothiazolone] | 12.7 µM | – |
| O=c1ssc(Cl)c1Cl [4,5-Dichloro-3H-1,2-dithiol-3-one] | 48 µM | – |

| Compound | CC50 at 24 h (AC50 (uM) modified / 1000) | further results |
| --- | --- | --- |
| CN1C(=O)N(C)C(O)C1O (centres unmarked) [4,5-Dihydroxy-1,3-dimethylimidazolidin-2-one] | > 90 µM | – |
| CC1=C(O)C(=O)OC1C (centres unmarked) [4,5-Dimethyl-3-hydroxy-2,5-dihydrofuran-2-one] | > 90 µM | – |
| c1ccc(-c2nc[nH]c2-c2ccccc2)cc1 [4,5-Diphenylimidazole] | > 50 µM | – |
| Cc1cc(O)c(C(C)(C)C)cc1C(C)(C)C [4,6-Di-tert-butyl-m-cresol] | 22.6 µM | – |
| Oc1cc(O)c(Cl)cc1Cl [4,6-Dichloro-1,3-benzenediol] | > 90 µM | – |
| CCOc1cc([N+](=O)[O-])c(OCC)cc1N1CCOCC1 [4-(2,5-Diethoxy-4-nitrophenyl)morpholine] | > 90 µM | – |
| CC(=O)C=CC1=C(C)CCCC1(C)C [4-(2,6,6-Trimethyl-cyclohex-1-enyl)-but-3-en-2-one] | > 90 µM | – |
| OCCN1CCOCC1 [4-(2-Hydroxyethyl)morpholine] | > 90 µM | – |
| CCC(C)(C)C1CCC(O)CC1 (centres unmarked) [4-(2-Methylbutan-2-yl)cyclohexanol] | > 90 µM | – |
| CCC(C)(C)c1ccc(O)cc1 [4-(2-Methylbutan-2-yl)phenol] | > 90 µM | – |
| CC(C)(c1ccccc1)c1ccc(Nc2ccc(C(C)(C)c3ccccc3)cc2)cc1 [4-(2-Phenylpropan-2-yl)-N-[4-(2-phenylpropan-2-yl)phenyl]aniline] | > 90 µM | – |
| CC1=NN(c2ccc(S(=O)(=O)O)cc2)C(=O)C1 [4-(3-Methyl-5-oxo-4,5-dihydro-1H-pyrazol-1-yl)benzenesulfonic acid] | > 90 µM | – |
| CC1=NN(c2ccc(C(=O)O)cc2)C(=O)C1 [4-(3-Methyl-5-oxo-4,5-dihydro-1H-pyrazol-1-yl)benzoic acid] | > 90 µM | – |
| c1ccc(CCCc2ccncc2)cc1 [4-(3-Phenylpropyl)pyridine] | > 90 µM | – |
| CC(=O)CCc1ccc(OC(C)=O)cc1 [4-(4-(Acetyloxy)phenyl)-2-butanone] | > 90 µM | – |
| COc1cc(CCC(C)=O)ccc1O [4-(4-Hydroxy-3-methoxyphenyl)-2-butanone] | > 90 µM | – |
| CC(C)(O)CCCC1=CCC(C=O)CC1 (centres unmarked) [4-(4-Hydroxy-4-methylpentyl)cyclohex-3-ene-1-carbaldehyde] | > 100 µM | – |
| CC(=O)CCc1ccc(O)cc1 [4-(4-Hydroxyphenyl)butan-2-one] | > 90 µM | – |
| COc1ccc(CCC(C)=O)cc1 [4-(4-Methoxyphenyl)-2-butanone] | > 90 µM | – |
| CC(=O)Nc1ccc(S(=O)(=O)Cl)cc1 [4-(Acetylamino)benzenesulfonyl chloride] | > 90 µM | – |
| CCC(C)c1cc(C(C)(C)C)c(O)c(C(C)(C)C)c1 (centres unmarked) [4-(Butan-2-yl)-2,6-di-tert-butylphenol] | > 90 µM | – |
| CCC(C)c1ccc(O)cc1 (centres unmarked) [4-(Butan-2-yl)phenol] | 61.9 µM | – |
| CN(C)c1ccc(N=Nc2ccccc2)cc1 [4-(Dimethylamino)azobenzene] | – | CC50 at 24 h (AC50 (uM) modified / 1000, Tox21_110001=Tox21_200757, viability, 1 nM T3 present, 24 h): > 90 µM |
| CN(C)c1ccc(SC#N)cc1 [4-(Dimethylamino)phenylthiocyanate] | > 90 µM | – |
| C=COCCCCO [4-(Ethenyloxy)butan-1-ol] | > 90 µM | – |
